In publication PMC7756656, “Discovery of Homobivalent Bitopic Ligands of the Cannabinoid CB2 Receptor” (Chemistry (Weinheim an Der Bergstrasse, Germany), 2020):

Columns and labels:
[1] = biological target: T1, CB1R (hCB1R) (Homo sapiens, UniProt P21554); assay: biochemical; type: HEK-293T membranes; design: [3H]CP-55,940 competition radioligand binding, membrane filtration, scintillation counting
T1 construct: gene CNR1; expressed in HEK-293T cells; membrane fractions
Excerpt: (§1) In vitro binding affinities of the alleged bitopic ligands 18–29 (Table 1) and the corresponding monovalent counterparts 6–17 (Table S1) were obtained from [^3H]CP‐55,940 competition‐binding assays using membrane fractions of the human CB1R and CB2R, respectively, expressed in HEK‐293T cells. […] Addition of the second pharmacophore makes bivalent ligands capable of binding CB2R in a selective manner. Optimal spacer length for N1‐ and N2‐ethyl derivatives is from 10 (n=8) to 14 (n=12) methylene units. S23 Aldrich, Madrid, Spain). Membranes were resuspended in the corresponding buffer and were incubated (90 min at 30 °C) with the radioligand and each compound at a high concentration (40 μM) with the purpose of determining the % of radioligand displacement. […] Nonspecific binding was determined with 10 μM WIN55212-2 (Sigma-Aldrich, Madrid, Spain) and total radioligand binding by incubation with the membranes in the absence of any compound. Filtration was performed by a Harvester filtermate (PerkinElmer, Boston, MA, USA) with Filtermat A GF/C filters pretreated with polyethylenimine 0.05%. After filtering, the filter was washed nine times with binding buffer and dried, and a melt-on scintillation sheet (MeltilexTM A, PerkinElmer, Boston, MA, USA) was melted onto it. Then, radioactivity was quantified by a liquid scintillation counter (Wallac MicroBeta Trilux, PerkinElmer, Boston, MA, USA). Competition binding data were analyzed by using GraphPad Prism, version 5.02 (GraphPad Software Inc., San Diego, CA, USA), and Ki values are expressed as the mean ± SEM of at least three experiments performed in triplicate for each. 2.2- cAMP determination assays. Determination of cAMP levels in HEK293 cells stably expressing the CB2R was performed using the Lance-Ultra cAMP kit (PerkinElmer) according to the manufacturer’s instructions. Briefly, HEK293 cells expressing the CB2R were dispensed in white 384-well microplates at a density of 5.000 cells per well. Finally, cells were incubated for 60 min at room temperature with HTRF assay reagents, and fluorescence at 665 nm was analyzed on a PHERAstar Flagship microplate reader equipped with an HTRF optical module (BMG Labtech). Data analysis was made based on the fluorescence ratio emitted by the labeled cAMP probe (665 nm) over the light emitted by the europium cryptate-labeled anti-cAMP antibody (620 nm). A standard curve was used to calculate cAMP concentration. Forskolin stimulated cAMP levels were normalized to 100%. Data was analyzed by using […]

[2] = biological target: T2, CB2R (hCB2R) (Homo sapiens, UniProt P34972); assay: biochemical; type: HEK-293T membranes; design: [3H]CP-55,940 competition radioligand binding, membrane filtration, scintillation counting
T2 construct: gene CNR2; expressed in HEK-293T cells
T2 sequence (P34972 whole entry): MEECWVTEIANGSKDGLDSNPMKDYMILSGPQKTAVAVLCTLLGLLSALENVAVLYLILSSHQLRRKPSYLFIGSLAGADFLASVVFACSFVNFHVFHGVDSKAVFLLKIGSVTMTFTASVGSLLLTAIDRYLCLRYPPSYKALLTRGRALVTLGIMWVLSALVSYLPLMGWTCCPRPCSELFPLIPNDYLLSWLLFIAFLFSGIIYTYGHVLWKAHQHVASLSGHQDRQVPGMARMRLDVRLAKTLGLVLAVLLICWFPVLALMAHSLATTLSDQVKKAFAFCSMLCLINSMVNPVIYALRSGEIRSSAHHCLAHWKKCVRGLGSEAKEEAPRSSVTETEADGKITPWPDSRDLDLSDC
Excerpt: as §1

[3] = biological target: T2, CB2R (hCB2R); assay: inhibition of forskolin-induced cAMP, HEK-293T cells; type: cell-based; settings: read-out: Wild type / pEC50 (converted)
[4] = biological target: T3, CB2R (hCB2R) (Homo sapiens, UniProt P34972, A282M); assay: as above; type: cell-based; settings: read-out: Ala282^7.36Met / pEC50 (converted)
T3 construct: gene CNR2; expressed in HEK-293T cells
T3 sequence (P34972 whole entry A282M): as the sequence (P34972 whole entry) above, with A282M counted along it

[5] = biological target: T4, CB2R (hCB2R) (Homo sapiens, UniProt P34972, V36M); assay: as above; type: cell-based; settings: read-out: Val36^1.35Met / pEC50 (converted)
T4 construct: gene CNR2; expressed in HEK-293T cells
T4 sequence (P34972 whole entry V36M): as the sequence (P34972 whole entry) above, with V36M counted along it

[6] = biological target: T2, CB2R (hCB2R); assay: [3H]CP-55, […] competition binding, HEK-293T membranes; settings: read-out: CB2R Ki [μM]^[b]
[7] = biological target: T1, CB1R (hCB1R); assay: as above; settings: read-out: CB1R Ki [μM]^[b]
[8] = as above; design: species or system Homo sapiens; settings: read-out: CB1R Ki [μM]^[b]

T1 sequence (P21554 whole entry): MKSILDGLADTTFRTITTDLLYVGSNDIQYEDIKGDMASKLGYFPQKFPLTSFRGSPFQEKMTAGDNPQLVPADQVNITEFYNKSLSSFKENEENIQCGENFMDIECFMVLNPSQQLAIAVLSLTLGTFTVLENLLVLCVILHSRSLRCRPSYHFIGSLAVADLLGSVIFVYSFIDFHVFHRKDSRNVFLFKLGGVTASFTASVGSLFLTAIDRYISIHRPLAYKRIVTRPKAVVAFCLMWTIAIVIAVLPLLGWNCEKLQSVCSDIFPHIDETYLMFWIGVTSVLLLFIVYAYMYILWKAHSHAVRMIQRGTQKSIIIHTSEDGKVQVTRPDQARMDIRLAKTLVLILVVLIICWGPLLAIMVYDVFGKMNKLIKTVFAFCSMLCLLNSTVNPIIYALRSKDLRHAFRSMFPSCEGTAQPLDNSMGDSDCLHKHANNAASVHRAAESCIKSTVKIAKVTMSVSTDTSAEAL

SMILES | Ki [1] [nM] | Ki [2] [nM] | EC50 [3] [nM] | EC50 [4] [nM] | EC50 [5] [nM] | Ki [6] [µM] | Ki [7] [µM] | Ki [8] [µM]
CCCCCCCCCCCCCCOc1cc(C(C)(C)CCCCCC)cc2c1-c1nn(CC)cc1C(C)(C)O2 [compound 15, 15] | > 40000 | > 40000 |  |  |  |  |  | 
CCCCCCCCCCCCCCCCOc1cc(C(C)(C)CCCCCC)cc2c1-c1nn(CC)cc1C(C)(C)O2 [compound 17, 17] | > 40000 | > 40000 |  |  |  |  |  | 
CCCCCCC(C)(C)c1cc(OCCCCCCCCCCOc2cc(C(C)(C)CCCCCC)cc3c2-c2c(cnn2CC)C(C)(C)O3)c2c(c1)OC(C)(C)c1cnn(CC)c1-2 [compound 22, bivalent chromenopyrazole 22 (R1 = N1-Et, n = 8)] |  |  | 79.4 | 63.1 | 20 | 0.9 ± 0.2 | > 40 | 
CCCCCCC(C)(C)c1cc(OCCCCCCCCCCCCCCOc2cc(C(C)(C)CCCCCC)cc3c2-c2nn(CC)cc2C(C)(C)O3)c2c(c1)OC(C)(C)c1cn(CC)nc1-2 [compound 27] |  |  | 25.1 | 50.1 | 79.4 | 0.3 ± 0.1 | > 40 | 
CCCCCCC(C)(C)c1cc(OCCCCCCCCCCCCCCCCOc2cc(C(C)(C)CCCCCC)cc3c2-c2c(cnn2CC)C(C)(C)O3)c2c(c1)OC(C)(C)c1cnn(CC)c1-2 [compound 28, bivalent chromenopyrazole 28 (R1 = N1-Et, n = 14)] |  |  |  |  |  |  | > 40 | > 40
